Tests used:
Carbonic anhydrase 1 = Carbonic anhydrase 1 (Homo sapiens, UniProt P00915); assay: Inhibition of human carbonic anhydrase 1 incubated for 6 hrs by stopped flow carbon-di-oxide hydrase assay
Carbonic anhydrase 2 = Carbonic anhydrase 2 (Homo sapiens, UniProt P00918); assay: Inhibition of human carbonic anhydrase 2 incubated for 6 hrs by stopped flow carbon-di-oxide hydrase assay
Carbonic anhydrase 9 = Carbonic anhydrase 9 (Homo sapiens, UniProt Q16790); assay: Inhibition of human carbonic anhydrase 9 incubated for 6 hrs by stopped flow carbon-di-oxide hydrase assay

Chain of Carbonic anhydrase 1 (P00915 whole entry): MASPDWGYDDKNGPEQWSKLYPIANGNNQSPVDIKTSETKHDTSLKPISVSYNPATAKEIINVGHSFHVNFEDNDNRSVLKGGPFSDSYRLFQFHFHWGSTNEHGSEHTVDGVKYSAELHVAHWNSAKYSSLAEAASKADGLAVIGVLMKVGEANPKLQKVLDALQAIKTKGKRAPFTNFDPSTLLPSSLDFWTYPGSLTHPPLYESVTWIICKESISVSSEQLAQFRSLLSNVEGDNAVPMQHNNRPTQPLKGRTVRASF

Row | SMILES | Ki (Carbonic anhydrase 1) [nM] | Ki (Carbonic anhydrase 2) [nM] | Ki (Carbonic anhydrase 9) [nM]
1 | O=c1ccc2ccc(OCc3cn(-c4ccccc4)nn3)cc2o1 | > 10000 | > 10000 | 24.5
2 | O=c1ccc2ccc(OCc3cn(-c4cccc(F)c4)nn3)cc2o1 | – | > 10000 | 24.9
3 | O=c1ccc2ccc(OCc3cn(-c4cccc(Cl)c4)nn3)cc2o1 | > 10000 | > 10000 | 31.2
4 | O=c1ccc2ccc(OCc3cn(-c4cccc(Br)c4)nn3)cc2o1 | > 10000 | > 10000 | 27.5
5 | COc1cccc(-n2cc(COc3ccc4ccc(=O)oc4c3)nn2)c1 | – | > 10000 | 23.6
6 | O=c1ccc2ccc(OCc3cn(-c4ccc(F)cc4)nn3)cc2o1 | – | > 10000 | 24
7 | O=c1ccc2ccc(OCc3cn(-c4ccc(C(F)(F)F)cc4)nn3)cc2o1 | – | > 10000 | –
8 | O=c1ccc2ccc(OCc3cn(-c4ccc(O)cc4)nn3)cc2o1 | – | > 10000 | 26.9
9 | O=C(O)c1ccc(-n2cc(COc3ccc4ccc(=O)oc4c3)nn2)cc1 | – | 99.6 | 28.8
10 | NS(=O)(=O)c1ccc(-n2cc(COc3ccc4ccc(=O)oc4c3)nn2)cc1 | – | > 10000 | 14.3
11 | Cc1cc(=O)oc2cc(-n3cc(COc4ccc5ccc(=O)oc5c4)nn3)ccc12 | > 10000 | > 10000 | 22.8
12 | Cc1cc(=O)oc2cc(-n3cc(COc4ccccc4)nn3)ccc12 | – | > 10000 | 33.1
13 | Cc1cc(=O)oc2cc(-n3cc(CSc4ccccc4)nn3)ccc12 | – | > 10000 | –
14 | Cc1cc(=O)oc2cc(-n3cc(CNc4ccccc4)nn3)ccc12 | – | 9740 | 34.4

Source: ChEMBL document CHEMBL3621125, “Click-tailed coumarins with potent and selective inhibitory action against the tumor-associated carbonic anhydrases IX and XII” (Bioorg Med Chem, 2015)
